Measurements: patent US20170020909A1, “METHODS OF TREATING GLAUCOMA USING AMP-ACTIVATED PROTEIN KINASE (AMPK) ACTIVATORS” (Massachusetts Eye and Ear Infirmary, priority 2014, published 2017)

Assays:
SPARC = test: Immunoblot of SPARC in conditioned media of human TM cells; type: cell-based; settings: 24 hours
Procedure: (§1) FIGS. 5A-E. AICAR suppresses ECM proteins in primary human TM cells under basal and TGF-β2 stimulatory conditions. (A) Representative immunoblots of ECM proteins from conditioned media (CM) of human TM cells treated for 24 hours with PBS vehicle or 0.5 mM AICAR and (B) integrated band intensities calculated from those immunoblots. (C) Representative immunoblots of ECM proteins from CM of human TM cells under stimulation with 2.5 ng/mL TGF-β2. Cells were pre-incubated for 1 hour with PBS or 0.5 mM AICAR prior to full 24-hour treatment. (D) Mean integrated band intensities. Data in panels B and D are expressed as mean±SEM (*p<0.05 vs. PBS vehicle by student t-test; n=5-7). (E) Representative 10% acrylamide gels stained with Coomassie Brilliant Blue as a loading control. […]
(§2) At the conclusion of each experiment for matricellular and ECM protein detection, conditioned media (CM) from TM cell cultures was harvested and centrifuged at 5000 rpm for 10 minutes at 4° C. The supernatant was then concentrated (Amicon Ultra-4 Filter Unit, 10 kDa; Millipore, Milford, Mass.), and protein content quantified using the DC Protein Assay kit adhering to manufacturer's protocols (Bio-Rad, Hercules, Calif.). […] Samples were then centrifuged at 14,000 rpm for 15 minutes at 4° C. and protein content quantified. […]

laminin = test: Immunoblot of laminin in conditioned media of human TM cells; type: cell-based; settings: 24 hours
Procedure: as §1, §2

[1] = system: perfused ex vivo human anterior segments; test: IOP in constant-flow-perfused ex vivo human anterior segments; settings: 2.5 μL of 200 mM AICAR in 1 mL of ex vivo media, by day 7, mean±SEM, n=3
Excerpt: The effects of AICAR on IOP in perfused constant flow ex vivo human anterior segments was examined using well-established and validated methods (see, e.g., Oh et al., Invest. Ophthalmol. Vis. Sci. 2013; 54:3309-19; Ethier et al., Invest. Ophthalmol. Vis. Sci. 2004; 45:1863-70). Briefly, all donor pairs of eyes were obtained from National Disease Research Interchange (NDRI, Philadelphia, Pa.) according to the provisions of the Declaration of Helsinki for research involving human tissue. Eyes were obtained within 24 hours after death. No donors were known to have a history of glaucoma or other ocular disorder. Human perfused anterior segment cultures were prepared by scoring the surface of the eye around ora serrata with a surgical blade, and the full-thickness incision was completed around the eye with scissors. The vitreous, lens, and iris were removed. […] IOP was monitored with a pressure transducer (Argon Medical Devices, Athens, Tex.) and were recorded with an automated computerized system (National Instruments, Austin, Tex.) every second and averaged each hour. […] Effects of AICAR treatment on IOP are expressed as the percentage change in IOP (compared to baseline). Values are expressed as mean±SEM, and paired two-tailed student t-tests are applied to determine significance of difference in IOP between control and experimental groups at selected time intervals. […]

[2] = 0.5 mM AICAR vs PBS vehicle, basal
[3] = 0.5 mM AICAR, under TGF-β2 stimulation with 2.5 ng/mL

NC(=O)c1ncn([C@@H]2O[C@H](CO)[C@@H](O)[C@H]2O)c1N [AICAR, 5-Aminoimidazole-4-carboxamide riboside]
change in SPARC (mean integrated band intensity) (SPARC; [2]): no change
decrease in SPARC level (SPARC; [3]): 64%
decrease in laminin (mean integrated band intensity) (laminin; [2]): 64%
decrease in laminin level (laminin; [3]): 33%
mean decrease in IOP compared with paired opposite eye controls [1]: 18.54±1.78%
